Results published in US12492337B2, “Fluorescent probe, preparation method therefor and use thereof” (FLUORESCENCE DIAGNOSIS (SHANGHAI) BIOTECH COMPANY, priority 2017, dated 2025).

Assays:
[1] = Quantum yield of free probe not reacted with protein tag; format: physicochemical
Description: (§1) A probe was mixed with a corresponding HaloTag protein tag to obtain a mixed sample. The final concentration of the probe in the mixed sample was 5 μM and the final concentration of the protein tag was 10 μM. The mixed sample was incubated at 37° C. for 1 hour, and the sample was detected using a fluorescence spectrophotometer.

[2] = Viscosity responsiveness: fluorescence intensity in glycerol versus methanol; format: physicochemical; settings: fluorescence intensity in glycerol to that in methanol
Description: The above-mentioned viscosity-responsive fluorescent dye means that the fluorescence intensity of the dye responds to the viscosity of the solution. As the viscosity of the solution increases, the fluorescence intensity increases. Optionally, the viscosity-responsive fluorescent dye is an organic dye molecule which, under the same concentration and excitation wavelength, at 25° C. has a ratio • of the maximum fluorescence emission intensity of the dye in glycerol to the fluorescence intensity in methanol of greater than 2, optionally greater than 5, optionally greater than 10. The concentration of the viscosity-responsive dye ranges from 1×10^−7 M to 1×10^−5 M.

[3] = tested on: HaloTag protein tag; assay: Probe mixed with HaloTag protein tag, fluorescence spectrophotometer (Example 86); format: biochemical; settings: 5 μM probe, 10 μM protein tag, 37° C., 1 hour; for Fluorescence enhancement: fluorescence activation multiple after binding protein tag; for Emission/nm: fluorescence emission wavelength
Description: as §1

| Compound | The quantum yield of the free probe [1] | ratio [2] | The quantum yield after binding to Halo-tag [3] | Emission/nm [3] [nm] | Fluorescence enhancement [3] |
| --- | --- | --- | --- | --- | --- |
| CC(C)(C)OC(=O)/C(C#N)=C/c1ccc(N(CCOC(=O)NCCCS(=O)(=O)[O-])CCOC(=O)NCCOCCOCCCCCCCl)cc1.[Na+] [Probe5] | <0.001 | 790 | 0.46 | 480 | 1174 |
| CN(CCOC(=O)NCCOCCOCCCCCCCl)c1ccc(/C=C(\C#N)C(=O)OC(C)(C)C)cc1 [Probe 1] | <0.001 | 560 | 0.52 | 480 | 500 |
| CN(CCOC(=O)NCCOCCOCCCCCCCl)c1ccc(/C=C(\C#N)c2nc3ccccc3o2)cc1 [Probe 2] | 0.001 | 410 | 0.48 | 510 | 410 |
| CN(CCOC(=O)NCCOCCOCCCCCCCl)c1ccc(/C=C(\C#N)c2nc3ccccc3s2)cc1 [Probe 3] | 0.0011 | 399 | 0.45 | 515 | 512 |
| CC(C)(C)OC(=O)/C(C#N)=C/c1ccc(N(CCO)CCOC(=O)NCCOCCOCCCCCCCl)cc1 [Probe 4] | <0.001 | 562 | 0.42 | 480 | 490 |
| CN1C(=O)/C(=C/c2ccc(N(C)CCOC(=O)NCCOCCOCCCCCCCl)cc2)N=C1c1ccccc1 [Probe 6] | <0.001 | 1183 | 0.40 | 530 | 989 |
| CN1C(=O)/C(=C/c2ccc(N(C)CCOC(=O)NCCOCCOCCCCCCCl)cc2)N=C1/C=C/c1ccccc1 [Probe 7] | <0.001 | 1455 | 0.46 | 580 | 1502 |
| CN(CCOC(=O)NCCOCCOCCCCCCCl)c1ccc(C2=C(C#N)C(=C(C#N)C#N)OC2(C)C)cc1 [Probe 8] | 0.0018 | 320 | 0.47 | 535 | 296 |
| CN(CCOC(=O)NCCOCCOCCCCCCCl)c1cc2sc(/C=C(\C#N)C(=O)OC(C)(C)C)cc2s1 [Probe 10] | <0.001 | 655 | 0.42 | 550 | 431 |
| CN(CCOC(=O)NCCOCCOCCCCCCCl)c1cc2sc(/C=C(\C#N)c3nc4ccccc4o3)cc2s1 [Probe 11] | 0.0013 | 422 | 0.46 | 590 | 520 |
| CN(CCOC(=O)NCCOCCOCCCCCCCl)c1ccc2cc(/C=C(\C#N)c3nc4ccccc4o3)sc2c1 [Probe 14] | <0.001 | 560 | 0.52 | 610 | 771 |
| CC(C)(C)OC(=O)/C(C#N)=C/c1cc2ccc(N(CCO)CCOC(=O)NCCOCCOCCCCCCCl)cc2s1 [Probe 15] | <0.001 | 320 | 0.53 | 570 | 379 |
| CC1=N/C(=C\c2cc3ccc(N(C)CCOC(=O)NCCOCCOCCCCCCCl)cc3s2)C(=O)N1C [Probe 17] | <0.001 | 402 | 0.56 | 575 | 498 |
| CN(CCOC(=O)NCCOCCOCCCCCCCl)c1ccc2nc(/C=C(\C#N)c3nc4ccccc4o3)oc2c1 [Probe 20] | <0.001 | 341 | 0.47 | 640 | 612 |
| CN1C(=O)/C(=C/c2nc3ccc(N(C)CCOC(=O)NCCOCCOCCCCCCCl)cc3o2)N=C1c1ccccc1 [Probe 22] | <0.001 | 1821 | 0.36 | 632 | 610 |
| CN(CCOC(=O)NCCOCCOCCCCCCCl)c1ccc2nc(/C=C(\C#N)c3nc4ccccc4s3)oc2c1 [Probe 23] | <0.001 | 1235 | 0.52 | 637 | 712 |
| CN(CCOC(=O)NCCOCCOCCCCCCCl)c1ccc2nc(/C=C(\C#N)C(=O)OC(C)(C)C)ccc2c1 [Probe 26] | <0.001 | 1123 | 0.56 | 590 | 910 |

Continued, in another order:

| The quantum yield of the free probe [1] | ratio [2] | The quantum yield after binding to Halo-tag [3] | Emission/nm [3] [nm] | Compound | Fluorescence enhancement [3] |
| --- | --- | --- | --- | --- | --- |
| <0.001 | 851 | 0.50 | 480 | CN(CCOC(=O)NCCOCCOCCCCCCCl)c1ccc(/C=C(\C#N)C(=O)O)cc1 [Probe 9] | 745 |
| 0.0012 | 405 | 0.41 | 555 | CN(CCOC(=O)NCCOCCOCCCCCCCl)c1cc2sc(/C=C(\C#N)C(=O)O)cc2s1 [Probe 12] | 750 |
| <0.001 | 391 | 0.56 | 570 | CN(CCOC(=O)NCCOCCOCCCCCCCl)c1ccc2cc(/C=C(\C#N)C(=O)OC(C)(C)C)sc2c1 [Probe 13] | 816 |
| 0.0017 | 301 | 0.51 | 568 | CN(CCOC(=O)NCCOCCOCCCCCCCl)c1ccc2cc(/C=C(\C#N)C(=O)O)sc2c1 [Probe 18] | 444 |
| 0.0012 | 299 | 0.53 | 625 | CN(CCOC(=O)NCCOCCOCCCCCCCl)c1ccc2nc(/C=C(\C#N)C(=O)OC(C)(C)C)oc2c1 [Probe 19] | 561 |
| <0.001 | 1481 | 0.48 | 628 | CN(CCOC(=O)NCCOCCOCCCCCCCl)c1ccc2nc(/C=C(\C#N)C(=O)O)oc2c1 [Probe 21] | 560 |
| <0.001 | 1681 | 0.52 | 622 | CN(CCOC(=O)NCCOCCOCCCCCCCl)c1ccc2nc(/C=C(\C#N)C(=O)OC(C)(C)C)sc2c1 [Probe 24] | 590 |
| <0.001 | 1621 | 0.51 | 620 | CN(CCOC(=O)NCCOCCOCCCCCCCl)c1ccc2nc(/C=C(\C#N)C(=O)O)sc2c1 [Probe 25] | 670 |
